Data taken from patent US7183279B2, “Histogranin-like peptides and non-peptides, processes for their preparation and uses thereof” (University of Ottawa, priority 2006, dated 2007).
Entries after “also recorded” stand apart in the source; their conditions may differ. Read-outs that look alike come from different tables or passages of the source. Non-standard residues stand in square brackets, D forms with d. Residues, ends and D or L forms follow the SMILES beside them. Phe(4-Cl) = N[C@@H](Cc1ccc(Cl)cc1)C(=O)O

Assays:
Swiss Webster mice [1] = assay: Mouse tail flick assay (radiant heat); assay type: in vivo; settings: i.c.v.; for AD50 (nmol/mouse): latency 5 min after injection
Protocol: Mouse tail flick assay. […] Briefly, the latency to withdraw the tail from a focused light stimulus was determined using a photocell. […] Baseline latencies were determined before experimental treatment as the mean of two trials and a maximal latency of 12 s was used to minimize tissue damage. Post-treatment latencies were determined 5 min after i.c.v. injection. The antinociceptive effect was expressed as the percentage of the maximum possible effect, as calculated by the formula: % MPE=[(post-injection latency-baseline latency)/(cutoff latency-baseline latency)]×100. […] Group % MPE means were compared using one-way ANOVAs and P≦0.05 was considered significant.

Swiss Webster mice [2] = assay: Mouse writhing test (acetic acid-induced); assay type: in vivo; settings: for AD50 (nmol/mouse): acetic acid i.p. 5 min after injection; for analgesia: i.v. administration, 1 μmol/kg; for analgesic activity after peripheral administration: oral and i.p. administrations
Swiss Webster mice [3] = assay: Mouse rotarod assay; settings: 10 nmol i.c.v.
Text: Mouse rotarod assay. The rotarod treadmill (model 7600, UGO Basile, Italy) for mice was used to assess the motor side-effects of antinociceptive agents. […] The apparatus is constituted of a rod with a diameter of 2.5 cm suspended horizontally 50 cm above a plane working area. The rod is turning at a speed of 8 revolutions per min. Circular perpex separators are placed at regular intervals along the rod so that five mice can be tested at the same time. Before administering any compound, all animals are placed on the turning rod for one min in two consecutive rounds. Mice that fall from the rod during these conditioning experiments are excluded from the assay. For the assay, the test compounds were administered i.c.v. and the animals were placed on the turning rod for two min. The % of mice in groups of 10 mice which fell during this latter two min-experiment was recorded as the % of mice showing motor effects. Rotarod assays were conducted at different times (up to 60 min) after the administration of peptides. Statistical calculation were made using Student t-test. Results: Mouse writhing pain assay. […] The lengths of action of the various compounds were evaluated by measuring the time (T1/2) it took after injection of a specific dose of a compound to produce half-maximal effect. […] Analgesic effects of peripheral administrations. […] Mouse tail-flick assay.

Swiss Webster mice [4] = assay: Induction of tolerance to morphine, tail-flick latency; assay type: in vivo, mouse; settings: for tail-flick latency on repeated dosing: 8 days
Protocol: Tail-flick latency to thermal pain was recorded 30 min after the i.p. administration(s) in the morning session of days 1, 3, 6 and 8 as indicated in the figure.

rat = settings: literature; cited from earlier work
[5] = sciatic nerve injury, literature; cited from earlier work
[6] = i.t. administration of NMDA, literature; cited from earlier work
Swiss Webster mice [7] = settings: literature values; cited from earlier work

Molecule	Potency ratio relative to [Ser1]HN (Swiss Webster mice [1])	AD50 (nmol/mouse) (Swiss Webster mice [1])	Potency ratio relative to Histogranin (HN) (Swiss Webster mice [2]; i.c.v.)	AD50 (nmol/mouse) (Swiss Webster mice [2]; i.c.v.)	motor effect (Swiss Webster mice [3])	also measured
N=C(N)NCCC[C@H]1NC(=O)[C@H](Cc2ccc(O)cc2)NC(=O)[C@H](Cc2ccc(Cl)cc2)NC(=O)CNC1=O [Compound I-1, Cyclo(-Gly-(p-chloro)Phe-Tyr-D-Arg-)] (cyclo(G[Phe(4-Cl)]Y[dR]))	12.5	9.1	135	0.17	did not cause any motor effect	analgesia in tail-flick assay in words (Swiss Webster mice [1]): more potent than HN; fold more potent than morphine (Swiss Webster mice [2]; i.c.v.): 3.9 fold; analgesia (Swiss Webster mice [2]): 84%; analgesic activity after peripheral administration (Swiss Webster mice [2]): dose-dependent analgesic activity; also recorded: Significant analgesic activity
N=C(N)NCCC[C@H](Nc1ccccc1NC(=O)Cc1ccc(O)cc1)C(N)=O [II-1, N-5-guanidinopentanamide-(2S)-yl-2-N-(p-hydroxyphenylacetyl) phenylenediamine]	8.0	14.2	3.54	6.5	did not cause any motor effect	analgesia in tail-flick assay in words (Swiss Webster mice [1]): more potent than HN; potentiation of morphine analgesia (Swiss Webster mice [2]; coadministration i.c.v. of subanalgesic dose (3 nmol) with morphine): left shift in the dose-response curve of morphine; also recorded: potentiates the analgesic effects of morphine; prolongation of morphine analgesia (Swiss Webster mice [2]; coadministration with morphine 0.5 nmol i.c.v.): slightly prolongated; analgesia (Swiss Webster mice [2]): 35%; analgesic activity after peripheral administration (Swiss Webster mice [2]): dose-dependent analgesic activity; also recorded: Significant analgesic activity; effect on analgesic effect of morphine (Swiss Webster mice [4]; 4 mg/kg i.p. 30 min prior to morphine 10 mg/kg): potentiated the analgesic effect of morphine; effect on morphine tolerance (Swiss Webster mice [4]; 4 mg/kg i.p. 30 min prior to morphine 10 mg/kg, days 6 and 8): inhibits morphine tolerance; tail-flick latency on repeated dosing (Swiss Webster mice [4]; 4 mg/kg i.p. twice a day, alone): small increase in the tail-flick latency that was significant only on days 1 and 8
Cyclo(-Gly-(p-chloro)Phe-Tyr-(p-guanidino)Phe-) [Compound I-3]	–	–	21.3	1.08	–	–
Cyclo(-Gly-(p-amino)Phe-Tyr-D-Arg-) [Compound I-4]	–	–	9.14	2.52	–	analgesia (Swiss Webster mice [2]): 71%
N=C(N)NCCC[C@H](Nc1ccc(C(F)(F)F)cc1NC(=O)Cc1ccc(O)cc1)C(N)=O [II-2, N-5-guanidinopentanamide-(2S)-yl-2-N-(p-hydroxyphenylacetyl)-4-trifluorometyl-phenylenediamine]	1.16	98.6	1.40	16.1	did not cause any motor effect	–
N=C(N)NCCC[C@H](C(N)=O)n1c(-c2ccc(O)cc2)nc2cc(C(=O)O)ccc21 [III-1]	11.9	9.6	5.56	4.14	did not cause any motor effect	analgesia in tail-flick assay in words (Swiss Webster mice [1]): more potent than HN; analgesic activity after peripheral administration (Swiss Webster mice [2]): dose-dependent analgesic activity; also recorded: Significant analgesic activity
CN1CC[C@]23c4c5ccc(O)c4O[C@H]2[C@@H](O)C=C[C@H]3[C@H]1C5 [Morphine, reference compound]	–	1.57	–	0.72	–	tail-flick latency on repeated dosing (Swiss Webster mice [4]; 10 mg/kg i.p. twice a day): tolerance being developed at days 6 and 8
N=C(N)NCCC[C@@H](Nc1ccc(C(=O)O)cc1NC(=O)Cc1ccc(O)cc1)C(N)=O [II-3, N-5-guanidinopentanamide-(2R)-yl-2-N-(p-hydroxyphenylacetyl)-4-carboxy-phenylenediamine]	3.59	31.7	7.27	3.16	did not cause any motor effect	–
Cyclo(-Gly-(p-chloro)Phe-Tyr-(p-amino)Phe-) [Compound I-2]	–	–	3.39	6.79	–	–
[Ser^1] HN: a chemically stable analog of HN	1	114	–	–	–	tonic pain (rat): blocked tonic pain; hyperalgesia and allodynia [5]: attenuated hyperalgesia and allodynia; hyperalgesia and allodynia [6]: attenuated hyperalgesia and allodynia
N=C(N)NCCC[C@@H](Nc1ccc(C(=O)c2ccc(Cl)cc2)cc1NC(=O)Cc1ccc(O)cc1)C(N)=O [II-4, N-5-guanidinopentanamide-(2R)-yl-2-N-(p-hydroxyphenylacetyl)-4-(p-chlorobenzoyl)-phenylenediamine]	8.70	13.1	8.87	2.61	did not cause any motor effect	–
C[C@@H](O)[C@@H]1NC(=O)[C@@H](CCCNC(=N)N)NC(=O)[C@H](Cc2ccc(O)cc2)NC(=O)[C@H](Cc2ccc(Cl)cc2)NC1=O [Compound I-5, Cyclo(-Thr-(p-chloro)Phe-Tyr-D-Arg-)] (cyclo([Phe(4-Cl)]Y[dR]T))	2.96	38.5	2.14	10.7	did not cause any motor effect	–
CC(C)CC(NC(=O)C(NC(=O)C(CCCNC(=N)N)NC(=O)CNC(=O)C(CCC(N)=O)NC(=O)CN)C(C)O)C(=O)NC(Cc1ccc(O)cc1)C(=O)NCC(=O)NC(Cc1ccccc1)C(=O)O (stereo not shown) [HN-(7–15), reference compound] (H-GQGRTLYGF-OH; configuration not given here)	–	–	2.71	8.5	–	AD50 (Swiss Webster mice [7]): 8.5 nmol/mouse
